Laboratory results: patent US8821938B2, “Porous drug matrices and methods of manufacture thereof” (Acusphere, Inc., priority 1999, dated 2014)

What was measured:
Format in all cases: physicochemical
[1] = Particle size and surface area of drug particles in wetted matrices, Coulter Multisizer II; details: reconstituted in aqueous media; electrolyte pre-saturated with drug
Protocol: Particle size analysis was performed using the Coulter Multisizer II with a 50 micron aperture using siphon mode. Electrolyte was pre-saturated with the drug of interest, and filtered through a 0.22 micron filter prior to addition of lots for analysis to ensure that no portion of the drug within the lot would dissolve during the analysis.

[2] = Density of dry powder by Transaxial Pressure (TAP), Micromeritics GeoPyc 1360; details: consolidation force of 8 Newtons
[3] = Drug integrity post processing by HPLC
Protocol: Drug integrity post processing was assessed by High Pressure Liquid Chromatography (“HPLC”) (Hewlett Packard Series 1100 HPLC). […] For paclitaxel, the chromatographic conditions included a Nucleosil column (5:m, C18, 100A, 250×4.6 mm), a mobile phase of 2 mM H3PO4/Acetonitrile (2:3) at a flow rate of 1.5 mL/min, UV detection at 227 nm, and a run time of 25 min.

With `COc1ccc2cc([C@H](C)C(=O)O)ccc2c1` [Naproxen Bulk, naproxen] as the molecule, how does the “Size (mean particle size of drug particles)” value [1] read?
Its value is 2.89 microns.

What about the “Surface Area (total surface area of drug particles)” value [1] of the same molecule?
Its value is 0.66 m^2/mL of microparticles.

For `C[C@]12C=CC(=O)C=C1CC[C@@H]1[C@@H]2C(=O)C[C@@]2(C)[C@H]1CC[C@]2(O)C(=O)CO` [Prednisone Bulk, prednisone], which “Size (mean particle size of drug particles)” value [1] is on record?
The value was 2.07 microns.

What about the “Surface Area (total surface area of drug particles)” value [1] of the same molecule?
The value was 1.43 m^2/mL of microparticles.

And the Density [2]?
The Density was 0.68 g/mL.

What about the “Purity (drug integrity post processing)” value [3] of the same molecule?
The value was 100%.

Which “Purity (drug integrity post processing)” value [3] does the source give for `CC(=O)O[C@H]1C(=O)[C@@]2(C)[C@H]([C@H](OC(=O)c3ccccc3)[C@]3(O)C[C@H](OC(=O)[C@H](O)[C@@H](NC(=O)c4ccccc4)c4ccccc4)C(C)=C1C3(C)C)[C@]1(OC(C)=O)CO[C@@H]1C[C@@H]2O` [Paclitaxel Bulk, paclitaxel] here?
Its value is 100%.

Which results are given for `COC1=CC(=O)C[C@@H](C)[C@]12Oc1c(Cl)c(OC)cc(OC)c1C2=O` [Griseofulvin Bulk, griseofulvin]?
Size (mean particle size of drug particles) [1]: 2.42 microns; Surface Area (total surface area of drug particles) [1]: 0.88 m^2/mL of microparticles; Density [2]: 0.80 g/mL; Purity (drug integrity post processing) [3]: 95.7%
